In patent US20200339691A1, “PROTEINACEOUS MOLECULES AND USES THEREFOR” (priority 2018, published 2020):
Where a SMILES comes first, the peptide text is derived from it. The star is where a group is joined. Myristoyl = CCCCCCCCCCCCCC(=O)*

Columns and labels:
[1] = test system: CD44^hiCD24^lo CSCs in MDA-MB-231 cells; assay: FACS analysis of CD44^hiCD24^lo cancer stem cells in MDA-MB-231 cells treated with P1 analogues; assay type: cell-based, human; settings: 50 μM peptide, 48 hours; for CD44^hiCD24^lo CSCs (%) / COI, Live Single CD44^hiCD24^lo CSCs (Cell Count): n = 1; for Average Inhibition of CSCs (%) / CD44^hiCD24^lo CSCs (%) Repeat 1 / CD44^hiCD24^lo CSCs (%) Repeat 2 / CD44^hiCD24^lo CSCs (%) Repeat 3: n = 3
Protocol: Analogues of P1 (Table 6) were designed and synthesized in accordance with the procedure of Example 5. The ability of these analogues to inhibit cancer stem cells was determined using FACS analysis on MDA-MB-231 cells, which constitutively contain approximately 90% CD44^hiCD24^lo cancer stem cells, treated with the peptides.
(§1) Non-adherent cells were removed during the washing steps.

MDA-MB-231 cells = assay type: cell-based, human; settings: 50 μM peptide, 48 hours, n = 1
Excerpt: as §1
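Wherever COI, Live Single Cells (Cell Count) is given: live means Hoechst-negative events among single cells.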

SMILES | Inhibition of CSCs (%) Repeat 1 [1] | Inhibition of CSCs (%) Repeat 2 [1] | Inhibition of CSCs (%) Repeat 3 [1] | CD44^hiCD24^lo CSCs (%) [1] | COI, Live Single CD44^hiCD24^lo CSCs (Cell Count) [1] | Average Inhibition of CSCs (%) [1] | CD44^hiCD24^lo CSCs (%) Repeat 1 [1] | CD44^hiCD24^lo CSCs (%) Repeat 2 [1] | CD44^hiCD24^lo CSCs (%) Repeat 3 [1] | COI (Cell Count) (MDA-MB-231 cells) | COI, Live Single Cells (Cell Count) (MDA-MB-231 cells) | COI, Single (Cell Count) (MDA-MB-231 cells) | Total Cell Count (MDA-MB-231 cells)
CCCCCCCCCCCCCC(=O)N[C@@H](CC(C)C)C(=O)N[C@H](C(=O)N[C@@H](Cc1ccccc1)C(=O)N[C@H](C(=O)N[C@@H](Cc1ccccc1)C(=O)N[C@@H](CCCNC(=N)N)C(=O)N[C@@H](CC(C)C)C(=O)N[C@@H](CCCNC(=N)N)C(=O)N[C@@H](CCCCN)C(=O)NCC(=O)N[C@@H](CCCNC(=N)N)C(=O)N[C@@H](CCSC)C(=O)N[C@@H](CCSC)C(=O)N[C@@H](CC(=O)O)C(=O)N[C@H](C(=O)N[C@@H](CCC(=O)O)C(=O)N[C@@H](CCCCN)C(N)=O)C(C)C)[C@@H](C)CC)[C@@H](C)O [Peptide 2853841, Myristoyl-LTFIFRLRKGRMMDVEK-NH2] (Myristoyl-LTFIFRLRKGRMMDVEK-NH2) | 78.06% | 79.59% | 80.30% | 11.40% | 147 | 79.32% | 19.67% | 18.31% | 17.67% | 2072 | 1289 | 1594 | 6480
CCCCCCCCCCCCCC(=O)N[C@@H](CC(C)C)C(=O)N[C@H](C(=O)N[C@@H](Cc1ccccc1)C(=O)N[C@H](C(=O)N[C@@H](Cc1ccccc1)C(=O)N[C@@H](CCCNC(=N)N)C(=O)N[C@@H](CC(C)C)C(=O)N[C@@H](CCCNC(=N)N)C(=O)N[C@@H](CCCCN)C(=O)NCC(=O)N[C@@H](CCCNC(=N)N)C(=O)N[C@@H](CCSC)C(=O)N[C@@H](CCSC)C(=O)N[C@@H](CC(=O)O)C(=O)N[C@H](C(=O)N[C@@H](CC(C)C)C(=O)N[C@@H](CCCCN)C(N)=O)C(C)C)[C@@H](C)CC)[C@@H](C)O [Peptide 2853842, Myristoyl-LTFIFRLRKGRMMDVLK-NH2] (Myristoyl-LTFIFRLRKGRMMDVLK-NH2) | 76.16% | 78.88% | 81.46% | 12.39% | 27 | 78.83% | 21.37% | 18.95% | 16.64% | 325 | 218 | 249 | 3873
CCCCCCCCCCCCCC(=O)N[C@@H](CC(C)C)C(=O)N[C@H](C(=O)N[C@@H](Cc1ccccc1)C(=O)N[C@H](C(=O)N[C@@H](Cc1ccccc1)C(=O)N[C@@H](CCCNC(=N)N)C(=O)N[C@@H](CC(C)C)C(=O)N[C@@H](CCCNC(=N)N)C(=O)N[C@@H](CCCCN)C(=O)NCC(=O)N[C@@H](CCCNC(=N)N)C(=O)N[C@@H](CCSC)C(=O)N[C@@H](CCSC)C(=O)N[C@@H](CC(=O)O)C(=O)N[C@H](C(=O)N[C@@H](Cc1ccc(O)cc1)C(=O)N[C@@H](CCCCN)C(N)=O)C(C)C)[C@@H](C)CC)[C@@H](C)O [Peptide 2853843, Myristoyl-LTFIFRLRKGRMMDVYK-NH2] (Myristoyl-LTFIFRLRKGRMMDVYK-NH2) | 87.60% | 82.06% | 90.31% | 7.50% | 6 | 86.66% | 11.11% | 16.09% | 8.70% | 402 | 80 | 298 | 9152
CCCCCCCCCCCCCC(=O)N[C@@H](CC(C)C)C(=O)N[C@H](C(=O)N[C@@H](Cc1ccccc1)C(=O)N[C@H](C(=O)N[C@@H](Cc1ccccc1)C(=O)N[C@@H](CCCNC(=N)N)C(=O)N[C@@H](CC(C)C)C(=O)N[C@@H](CCCNC(=N)N)C(=O)N[C@@H](CCCCN)C(=O)NCC(=O)N[C@@H](CCCNC(=N)N)C(=O)N[C@@H](CCSC)C(=O)N[C@@H](CCSC)C(=O)N[C@@H](CC(=O)O)C(=O)N[C@H](C(=O)N[C@@H](CCCCN)C(=O)N[C@@H](CCCNC(=N)N)C(N)=O)C(C)C)[C@@H](C)CC)[C@@H](C)O [Peptide 2853844, Myristoyl-LTFIFRLRKGRMMDVKR-NH2] (Myristoyl-LTFIFRLRKGRMMDVKR-NH2) | 80.13% | 89.73% | 78.08% | 10.61% | 7 | 82.65% | 17.81% | 9.21% | 19.67% | 147 | 66 | 101 | 2094
CCCCCCCCCCCCCC(=O)N[C@@H](CC(C)C)C(=O)N[C@H](C(=O)N[C@@H](Cc1ccccc1)C(=O)N[C@H](C(=O)N[C@@H](Cc1ccccc1)C(=O)N[C@@H](CCCNC(=N)N)C(=O)N[C@@H](CC(C)C)C(=O)N[C@@H](CCCNC(=N)N)C(=O)N[C@@H](CCCCN)C(=O)NCC(=O)N[C@@H](CCCNC(=N)N)C(=O)N[C@@H](CCSC)C(=O)N[C@@H](CCSC)C(=O)N[C@@H](CC(=O)O)C(=O)N[C@H](C(=O)N[C@@H](CCCCN)C(=O)N[C@@H](CCC(=O)O)C(N)=O)C(C)C)[C@@H](C)CC)[C@@H](C)O [Peptide 2853845, Myristoyl-LTFIFRLRKGRMMDVKE-NH2] (Myristoyl-LTFIFRLRKGRMMDVKE-NH2) | 15.69% | 19.72% | 17.64% | 65.10% | 2612 | 17.69% | 75.56% | 72.02% | 73.91% | 4600 | 4012 | 4111 | 5598
CCCCCCCCCCCCCC(=O)N[C@@H](CC(C)C)C(=O)N[C@H](C(=O)N[C@@H](Cc1ccccc1)C(=O)N[C@H](C(=O)N[C@@H](Cc1ccccc1)C(=O)N[C@@H](CCCNC(=N)N)C(=O)N[C@@H](CC(C)C)C(=O)N[C@@H](CCCNC(=N)N)C(=O)N[C@@H](CCCCN)C(=O)NCC(=O)N[C@@H](CCCNC(=N)N)C(=O)N[C@@H](CCSC)C(=O)N[C@@H](CCSC)C(=O)N[C@@H](CC(=O)O)C(=O)N[C@H](C(=O)N[C@@H](CCCCN)C(=O)N[C@@H](CC(C)C)C(N)=O)C(C)C)[C@@H](C)CC)[C@@H](C)O [Peptide 2853846, Myristoyl-LTFIFRLRKGRMMDVKL-NH2] (Myristoyl-LTFIFRLRKGRMMDVKL-NH2) | 61.79% | 63.60% | 62.39% | 27.88% | 87 | 62.59% | 34.25% | 32.66% | 33.75% | 370 | 312 | 330 | 10000
CCCCCCCCCCCCCC(=O)N[C@@H](CC(C)C)C(=O)N[C@H](C(=O)N[C@@H](Cc1ccccc1)C(=O)N[C@H](C(=O)N[C@@H](Cc1ccccc1)C(=O)N[C@@H](CCCNC(=N)N)C(=O)N[C@@H](CC(C)C)C(=O)N[C@@H](CCCNC(=N)N)C(=O)N[C@@H](CCCCN)C(=O)NCC(=O)N[C@@H](CCCNC(=N)N)C(=O)N[C@@H](CCSC)C(=O)N[C@@H](CCSC)C(=O)N[C@@H](CC(=O)O)C(=O)N[C@H](C(=O)N[C@@H](CCCCN)C(=O)N[C@@H](Cc1ccc(O)cc1)C(N)=O)C(C)C)[C@@H](C)CC)[C@@H](C)O [Peptide 2853847, Myristoyl-LTFIFRLRKGRMMDVKY-NH2] (Myristoyl-LTFIFRLRKGRMMDVKY-NH2) | 25.89% | 27.27% | 26.71% | 62.59% | 2640 | 26.62% | 66.42% | 65.25% | 65.76% | 5345 | 4218 | 4268 | 10000
